According to BigSolDB 2.1:

CC[C@H](C)C(=O)O[C@H]1C[C@H](O)C=C2C=C[C@H](C)[C@H](CC[C@@H](O)C[C@@H](O)CC(=O)[O-])[C@H]21.[Na+]
Settings | solubility (mole fraction)
in ethanol, 278 K | 0.0031
in ethanol, 283 K | 0.00325
in ethanol, 288 K | 0.00346
in ethanol, 293 K | 0.00366
in ethanol, 298 K | 0.00406
in ethanol, 303 K | 0.00429
in ethanol, 318 K | 0.00569
in ethanol, 323 K | 0.00692
in ethanol, 328 K | 0.00793
in ethanol, 333 K | 0.00942
in isopropanol, 278 K | 0.000605
in isopropanol, 283 K | 0.000684
in isopropanol, 288 K | 0.000753
in isopropanol, 293 K | 0.000818
in isopropanol, 298 K | 0.000903
in isopropanol, 303 K | 0.00103
in isopropanol, 308 K | 0.0011
in isopropanol, 318 K | 0.00141
in isopropanol, 322.9 K | 0.00164
in isopropanol, 327.9 K | 0.0019
in methanol, 277.8 K | 0.0225
in methanol, 283 K | 0.0245
in methanol, 287.9 K | 0.027
in methanol, 293 K | 0.0301
in methanol, 297.8 K | 0.0326
in methanol, 302.9 K | 0.0373
in methanol, 308 K | 0.0418
in methanol, 313 K | 0.0492
in methanol, 318 K | 0.0588
in methanol, 324 K | 0.0687
in n-butanol, 278.1 K | 0.00108
in n-butanol, 283 K | 0.00118
in n-butanol, 288 K | 0.00127
in n-butanol, 293 K | 0.00144
in n-butanol, 298 K | 0.00159
in n-butanol, 303 K | 0.00178
in n-butanol, 308 K | 0.00223
in n-butanol, 313 K | 0.0029
in n-butanol, 318.2 K | 0.00345
in n-butanol, 323 K | 0.00408
in n-butanol, 328 K | 0.00493
in n-propanol, 278 K | 0.00208
in n-propanol, 283 K | 0.00216
in n-propanol, 288 K | 0.00219
in n-propanol, 293 K | 0.00227
in n-propanol, 298 K | 0.00238
in n-propanol, 308 K | 0.00343
in n-propanol, 313 K | 0.00449
in n-propanol, 318 K | 0.0062
in n-propanol, 328 K | 0.0122
in n-propanol, 333 K | 0.0158
in water, 278.4 K | 0.00911
in water, 283 K | 0.0119
in water, 288 K | 0.0162
in water, 293 K | 0.0216
in water, 298 K | 0.0285
in water, 303 K | 0.0343
in water, 313 K | 0.0477
in water, 318 K | 0.0553
in water, 323 K | 0.0642
in water, 328 K | 0.0723
in water, 333 K | 0.0841
